Measurements taken from US7476670B2, “Purine derivatives, method for preparing, pharmaceutical compositions and novel use” (Aventis Pharma S.A., priority 2003, dated 2009).
Structures can show the parent of a compound that is named as a salt. Where two headings read alike, the source gives them in different places.

How the values were obtained:
Assay type in all cases: biochemical
CaCiv1 = CaCiv1 (Candida albicans, UniProt A0A1D8PH53); experiment: Assay for inhibition of CIV-CDK (CIV1) activity
Source text: 1) Assay for Inhibition of CIV-CDK (CIV1) Activity
a) Preparation of the Reagents

[1] = molecular target: Cyclin Dependent kinase 2 (CDK2) (Homo sapiens, UniProt P24941); experiment: Assay for inhibition of CDK2 activity; conditions: [33P]ATP, read-out: percentage inhibition at 20 μM
Method: The inhibition of the kinase activity of Cyclin Dependent kinase 2 (CDK2) is determined by measuring the phosphorylation of its substrate peptide.
The assay is carried out in a final volume of 50 μl.
The incubation buffer as follows:
• 50 mM Hepes/NaOH pH 7.5 • 10 mM MgCl2 • 1 mM DTT 5 μl of the 10-times concentrated inhibitor are added to 25 μl of incubation buffer containing 0.8 U/μL final concentration of the enzyme; 10 μL of incubation buffer containing 0.0025 mg/ml of peptide substrate are then added and, finally, 10 μL of incubation buffer containing 2 mM ATP and radiolabeled ATP, [^33P]ATP (0.25 μCi), are added. The reaction is stopped after incubation for 10 minutes at 37° C. • Results obtained expressed as percentage inhibition at 20 μM • Example 2 97% • Example 27 97% • Example 30 99% 4) Assay for Inhibition of CDK1 Activity

Abl kinase = experiment: Assay for inhibition of Abl activity; conditions: fluorescence polarization
Method: The inhibition of the kinase activity is determined by fluorescence polarization, the Abl kinase phosphorylates a peptide detected by adding an anti-phosphopeptide antibody coupled to a fluorescent label.
The assay is carried out in a final volume of 50 μl; all the reagents are prepared in a buffer: • 20 mM Hepes/NaOH pH 7.5 • 5 mM MgCl2 • 100 μM Na2VO4 • 1 mM DTT • 100 μM EDTA/NaOH • 0.01% Brij35 5 μl of the 10-times concentrated inhibitor are added to 25 μl of enzyme (1000 U/ml final concentration), (Calbiochem ref 102555). After incubation for 5 minutes at ambient temperature, 10 μL of PolyGT (400 ng/ml final concentration) and 10 μL of ATP (5 μM final concentration) are added. The detection is carried out after incubation for 15 minutes at 30° C. • Results obtained expressed as percentage inhibition at 20 μM • Example 24 100% • Example 2 100% • Example 32 100% 6) Assay for Inhibition of ZAP Kinase Activity

GSK3beta = GSK3beta (Homo sapiens, UniProt P49841); experiment: Assay for inhibition of GSK3beta activity; conditions: [33P]ATP; read-out: IC50s expressed as micromolar
Method: (§1) The inhibition of the kinase activity is determined by measuring the phosphorylation of its substrate peptide.
The assay is carried out in a final volume of 40 μl; all the reagents are prepared in a buffer: • 50 mM HEPES pH 7.5 • 0.03% triton X100 • 10 mM MgCl2 • 5% Glycerol • 1 mM DTT 10 μl of the 10-times concentrated inhibitor are added to 5 μl of enzyme (20 ng final concentration), and 5 μl of peptide (1 μM final concentration) then 2.5 μof incubation buffer containing 16 μM ATP and 2.5 μl of radiolabeled ATP, [^33P]ATP (50 nCi) are added. After incubation for 15 minutes at ambient temperature, 10 μl of incubation buffer containing 1 μM of substrate.

PLK1 = PLK1 (Homo sapiens, UniProt P53350); experiment: Assay for inhibition of PLK1 activity; conditions: [33P]ATP; read-out: IC50s expressed as micromolar
Method: as §1
The assay is carried out in a final volume of 40 μl; all the reagents are prepared in a buffer: • 50 mM HEPES pH 7.5 • 0.03% triton X100 • 10 mM MgCl2 • 5% Glycerol • 1 mM DTT 10 μl of the 10-times concentrated inhibitor are added to 5 μl of enzyme (75 ng final concentration), and 5 μl of peptide (1 μM final concentration), then 2.5 μl of incubation buffer containing 40 μM ATP and 2.5 μl of radiolabeled ATP, [^33P]ATP (500 nCi), are added. After incubation for 15 minutes at ambient temperature, 10 μl of incubation buffer containing 192 nM of substrate. […] Reference method for broth dilution antifungal susceptibility testing of yeasts. Approved Standard M27-A. NCCLS, Villanova, Pa.); the minimum concentration with which a visible decrease is observed in the cloudiness of the cell growth (at least 80% compared to a control without product) is the Minimum Inhibitory Concentration (MIC) of the antifungal agent with respect to the strain tested.

SRC kinase = molecular target: T1, SRC kinase (Homo sapiens, UniProt P12931); experiment: Assay for inhibition of SRC kinase activity; conditions: fluorescence polarization, read-out: percentage inhibition at 20 μM
T1 construct: purchased Upstate Biotechnology 14-117
Method: 2) Assay for Inhibition of SRC Kinase Activity
The inhibition is determined by fluorescence polarization, the […] kinase phosphorylates a peptide detected by adding an anti-phosphopeptide antibody coupled to a fluorescent label.
The assay is carried out in a final volume of 50 μl; all the reagents are prepared in a buffer: • 25 mM HEPES/NaOH pH 7.6 • 5 mM MgCl2 • 2 mM MnCl2 • 50 μM Na2VO4 5 μl of the 10-times concentrated inhibitor are added to 25 μl of enzyme (12 U/ml final concentration), (Upstate Biotechnology ref 14-117). After incubation for 5 minutes at ambient temperature, 10 μl of PolyGluTyr 4/1 (150 ng/ml final concentration) and 10 μl of ATP (5 μM final concentration) are added. The detection is carried out after incubation for 20 minutes at ambient temperature. • Results obtained expressed as percentage inhibition at 20 μM • Example 8 98% • Example 15 99% • Example 20 99% • Example 24 99% • Example 27 95% • Example 30 99% • Example 32 100% • Example 38 95% 3) Assay for Inhibition of CDK2 Activity

ZAP kinase = molecular target: T2, ZAP kinase (Homo sapiens, UniProt P43403); experiment: Assay for inhibition of ZAP kinase activity; conditions: fluorescence polarization, read-out: percentage inhibition at 20 μM
T2 construct: purchased Panvera P2782
T2 sequence (P43403 1-619): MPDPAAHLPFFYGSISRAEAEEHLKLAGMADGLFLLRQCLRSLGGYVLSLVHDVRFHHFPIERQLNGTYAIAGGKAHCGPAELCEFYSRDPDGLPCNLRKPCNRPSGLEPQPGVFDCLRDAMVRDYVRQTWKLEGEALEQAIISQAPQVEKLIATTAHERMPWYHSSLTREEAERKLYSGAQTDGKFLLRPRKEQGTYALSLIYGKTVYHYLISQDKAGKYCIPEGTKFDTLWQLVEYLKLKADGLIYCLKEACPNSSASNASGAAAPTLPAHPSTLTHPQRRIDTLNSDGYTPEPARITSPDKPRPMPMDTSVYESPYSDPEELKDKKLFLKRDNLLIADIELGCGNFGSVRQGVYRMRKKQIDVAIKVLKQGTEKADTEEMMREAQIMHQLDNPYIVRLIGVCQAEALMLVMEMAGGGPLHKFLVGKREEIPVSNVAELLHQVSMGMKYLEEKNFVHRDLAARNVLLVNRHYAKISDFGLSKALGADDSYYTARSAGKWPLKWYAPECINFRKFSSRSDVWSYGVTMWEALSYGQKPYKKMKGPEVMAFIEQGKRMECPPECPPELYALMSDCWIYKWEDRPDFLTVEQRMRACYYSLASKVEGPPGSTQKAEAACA
Method: The inhibition of the kinase activity is determined by fluorescence polarization, the ZAP kinase phosphorylates a peptide detected by adding an anti-phosphopeptide antibody coupled to a fluorescent label.
The assay is carried out in a final volume of 50 μl; all the reagents are prepared in a buffer: • 20 mM Tris/HCl pH 7.7 • 7 mM MnCl2 • 50 μM Na2VO4 5 μl of the 10-times concentrated inhibitor are added to 25 μl of enzyme (0.7 μg/ml final concentration) (Panvera ref P2782). After incubation for 5 minutes at ambient temperature, 10 μl of PolyGT (300 ng/ml final concentration) and 10 μl of ATP (0.25 μM final concentration) are added. The detection is carried out after incubation for 15 minutes at ambient temperature. • Results obtained expressed as percentage inhibition at 20 μM • Example 8 98% • Example 20 95% • Example 24 96% 7) Assay for Inhibition of Casein Kinase II Activity

JNK3 kinase = JNK3 kinase (Homo sapiens, UniProt P53779); experiment: Assay for inhibition of JNK3 activity; conditions: fluorescence polarization, ATP 6 μM; read-out: IC50s expressed as micromolar
Method: The inhibition of the kinase activity is determined by fluorescence polarization, the JNK3 kinase phosphorylates a peptide detected by adding an anti-phosphopeptide antibody coupled to a fluorescent label.
The assay is carried out in a final volume of 30 μl; all the reagents are prepared in a buffer: • 50 mM HEPES pH 7.5 • 0.03% triton X100 • 10 mM MgCl2 • 5% Glycerol • 1 mM DTT 10 μl of the 10-times concentrated inhibitor are added to 5 μl of enzyme (40 ng final concentration), and 5 μl of incubation buffer containing 100 ng of substrate and 10 μl of ATP (6 μM final concentration) are added.

[2] = CaCiv1 with Cdk2 substrate, [33P]ATP, 30 min ambient temperature, read-out: IC50 as micromolar

Sequence of CaCiv1 (A0A1D8PH53 entry or part of it): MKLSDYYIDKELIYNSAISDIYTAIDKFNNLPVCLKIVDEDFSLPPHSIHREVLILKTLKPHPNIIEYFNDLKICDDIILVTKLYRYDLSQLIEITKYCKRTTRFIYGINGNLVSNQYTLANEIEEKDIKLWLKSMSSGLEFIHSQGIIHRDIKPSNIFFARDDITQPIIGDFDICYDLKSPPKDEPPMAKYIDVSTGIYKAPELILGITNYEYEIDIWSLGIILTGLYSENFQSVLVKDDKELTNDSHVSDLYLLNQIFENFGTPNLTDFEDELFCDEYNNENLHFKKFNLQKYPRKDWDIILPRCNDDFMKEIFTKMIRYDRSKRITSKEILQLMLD
Sequence of GSK3beta (P49841 whole entry, species assumed): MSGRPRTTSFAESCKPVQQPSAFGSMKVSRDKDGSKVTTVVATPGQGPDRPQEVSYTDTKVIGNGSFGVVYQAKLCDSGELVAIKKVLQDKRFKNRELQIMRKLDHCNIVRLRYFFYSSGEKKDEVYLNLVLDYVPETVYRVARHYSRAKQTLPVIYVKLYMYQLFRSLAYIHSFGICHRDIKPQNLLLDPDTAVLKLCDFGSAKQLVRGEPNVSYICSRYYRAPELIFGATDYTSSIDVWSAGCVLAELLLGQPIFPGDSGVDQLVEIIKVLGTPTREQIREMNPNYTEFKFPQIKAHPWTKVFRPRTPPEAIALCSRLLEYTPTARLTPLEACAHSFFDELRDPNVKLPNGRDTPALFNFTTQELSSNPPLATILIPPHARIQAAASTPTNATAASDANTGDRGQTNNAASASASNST
Sequence of PLK1 (P53350 whole entry, species assumed): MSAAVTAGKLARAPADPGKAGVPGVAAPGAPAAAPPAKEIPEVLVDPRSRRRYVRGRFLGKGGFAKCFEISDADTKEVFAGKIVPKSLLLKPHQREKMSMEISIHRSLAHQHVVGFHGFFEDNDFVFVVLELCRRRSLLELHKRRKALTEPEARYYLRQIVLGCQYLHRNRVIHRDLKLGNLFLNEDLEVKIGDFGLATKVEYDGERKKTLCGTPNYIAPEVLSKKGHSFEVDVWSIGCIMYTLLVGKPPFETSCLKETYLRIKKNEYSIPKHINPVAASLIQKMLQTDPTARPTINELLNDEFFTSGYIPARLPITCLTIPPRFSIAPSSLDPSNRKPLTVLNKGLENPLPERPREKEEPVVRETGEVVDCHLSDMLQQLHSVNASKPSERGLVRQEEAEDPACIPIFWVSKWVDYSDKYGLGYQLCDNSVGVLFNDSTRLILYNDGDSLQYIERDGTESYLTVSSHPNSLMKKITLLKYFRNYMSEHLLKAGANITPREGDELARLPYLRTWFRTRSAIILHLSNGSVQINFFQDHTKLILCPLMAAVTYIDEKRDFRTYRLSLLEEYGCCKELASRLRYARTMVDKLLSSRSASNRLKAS
Sequence of JNK3 kinase (P53779 whole entry): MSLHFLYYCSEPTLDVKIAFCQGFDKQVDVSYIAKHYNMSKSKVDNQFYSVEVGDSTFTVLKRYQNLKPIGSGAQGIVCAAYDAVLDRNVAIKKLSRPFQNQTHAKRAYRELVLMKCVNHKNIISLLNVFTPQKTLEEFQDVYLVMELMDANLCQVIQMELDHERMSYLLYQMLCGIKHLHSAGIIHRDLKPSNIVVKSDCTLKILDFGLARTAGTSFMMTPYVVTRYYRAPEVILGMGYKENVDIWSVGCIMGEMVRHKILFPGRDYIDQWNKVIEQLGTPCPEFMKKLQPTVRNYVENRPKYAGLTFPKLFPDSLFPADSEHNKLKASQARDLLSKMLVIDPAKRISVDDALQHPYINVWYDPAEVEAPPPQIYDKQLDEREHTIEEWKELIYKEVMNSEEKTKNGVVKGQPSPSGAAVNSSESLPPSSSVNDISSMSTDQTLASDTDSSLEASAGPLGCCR
T1 sequence (P12931 whole entry): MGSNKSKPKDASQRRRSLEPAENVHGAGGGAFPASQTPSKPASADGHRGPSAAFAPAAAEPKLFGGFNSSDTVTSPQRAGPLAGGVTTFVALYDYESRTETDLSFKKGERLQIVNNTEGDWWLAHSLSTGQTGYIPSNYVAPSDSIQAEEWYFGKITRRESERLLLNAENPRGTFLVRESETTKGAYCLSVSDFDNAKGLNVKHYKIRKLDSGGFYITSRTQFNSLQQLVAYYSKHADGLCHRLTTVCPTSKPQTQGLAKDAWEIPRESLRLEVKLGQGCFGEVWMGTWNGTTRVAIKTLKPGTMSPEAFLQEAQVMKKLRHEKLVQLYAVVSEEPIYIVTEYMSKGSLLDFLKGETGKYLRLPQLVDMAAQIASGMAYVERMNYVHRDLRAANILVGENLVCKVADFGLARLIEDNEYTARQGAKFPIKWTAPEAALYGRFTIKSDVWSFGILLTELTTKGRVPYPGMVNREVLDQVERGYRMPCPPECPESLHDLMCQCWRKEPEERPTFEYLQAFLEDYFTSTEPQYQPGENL

IC50 (CaCiv1; [2]) | Compound | percentage inhibition at 20 μM (Abl kinase) | IC50 (GSK3beta) | IC50 (PLK1) | IC50 (JNK3 kinase) | other results
 | Cl.Cl.N[C@H]1CC[C@H](Nc2nc(-n3cnc4ccccc43)c3nc[nH]c3n2)CC1 [Example 2, Trans-N-[6-(1H-benzimidazol-1-yl)-9H-purin-2-yl]-1,4-cyclohexanediamine dihydrochloride] | 100% | 0.6 µM |  |  | IC50 (CaCiv1): 0.5 µM; inhibition at 20 µM [1]: 97%
3.9 µM | OCC(CO)Nc1nc(-n2cnc3ccccc32)c2nc[nH]c2n1 [Example 18, 2-[[6-(1H-benzimidazol-1-yl)-9H-purin-2-yl]amino]-1,3-propanediol] |  |  | 0.16 µM |  | 
0.39 µM | O[C@H]1CC[C@H](Nc2nc(-n3cnc4ccccc43)c3nc[nH]c3n2)CC1 [Example 24, Trans-4-[[6-(1H-benzimidazol-1-yl)-9H-purin-2-yl]amino]cyclohexanol] | 100% |  |  |  | inhibition at 20 µM (SRC kinase): 99%; inhibition at 20 µM (ZAP kinase): 96%
 | CC1Cc2ccccc2N1c1nc(N[C@H]2CC[C@H](N)CC2)nc2[nH]cnc12 (stereo partly drawn) [Example 26, dihydrochloride] |  | 1.3 µM |  | 0.31 µM | 

Compound | IC50 (CaCiv1; [2]) | percentage inhibition at 20 μM (Abl kinase) | IC50 (GSK3beta) | IC50 (PLK1) | IC50 (JNK3 kinase) | other results
Trans-N-[6-(5,6-dichloro-2,3-dihydro-1H-indol-1-yl)-9H-purin-2-yl]-1,4-cyclohexanediamine dihydrochloride [Example 1] | 0.8 µM |  |  | 0.21 µM | 0.29 µM | 
